Experimental data as given in US7772183B2 (Bristol-Myers Squibb Company, priority 2005, dated 2010).

Tests used:
[1] = biological target: T1, HCV NS3/4A protease complex, BMS strain (UniProt P27958, species not given/STRAIN_BMS); assay: FRET peptide assay to monitor HCV NS3/4A proteolytic activity (BMS strain); assay type: biochemical, Hepatitis C virus (genotype 1a); settings: NS3/4A BMS strain; read-out: IC50 Range
T1 construct: said of H77 and J4L6S; fused on or other part: A three-lysine solubilising tail at the C-terminus of NS4A and a His tag (pET21b, Ni-NTA purification)
Source text: HCV NS3 protease complexes, derived from the BMS strain, H77 strain or J4L6S strain, were generated, as described below. These purified recombinant proteins were generated for use in a homogeneous assay (see below) to provide an indication of how effective compounds of the present disclosure would be in inhibiting HCV NS3 proteolytic activity.
Serum from an HCV-infected patient was obtained from Dr. T. Wright, San Francisco Hospital. An engineered full-length cDNA (compliment deoxyribonucleic acid) template of the HCV genome (BMS strain) was constructed from DNA fragments obtained by reverse transcription-PCR (RT-PCR) of serum RNA (ribonucleic acid) and using primers selected on the basis of homology between other genotype 1a strains. From the determination of the entire genome sequence, a genotype 1a was assigned to the HCV isolate according to the classification of Simmonds et al. (See P Simmonds, K A Rose, S Graham, S W Chan, F McOmish, B C Dow, E A Follett, P L Yap and H Marsden, J. Clin. Microbiol., 31(6), 1493-1503 (1993)). […] The infectious clones, H77 (1a genotype) and J4L6S (1b genotype) were obtained from R. Purcell (NIH) and the sequences are published in Genbank (AAB67036, see Yanagi, M., Purcell, R. H., Emerson, S. U. and Bukh, J. Proc. Natl. Acad. Sci. U.S.A. 94(16), 8738-8743 (1997); AF054247, see Yanagi, M., St Claire, M., Shapiro, M., Emerson, S. U., Purcell, R. H. and Bukh, J, Virology 244 (1), 161-172. (1998)).
The H77 and J4L6S strains were used for production of recombinant NS3/4A protease complexes. DNA encoding the recombinant HCV NS3/4A protease complex (amino acids 1027 to 1711) for these strains were manipulated as described by P. Gallinari et al. (see Gallinari P, Paolini C, Brennan D, Nardi C, Steinkuhler C, De Francesco R. Biochemistry. 38(17):5620-32, (1999)). Briefly, a three-lysine solubilizing tail was added at the 3′-end of the NS4A coding region. The cysteine in the P1 position of the NS4A-NS4B cleavage site (amino acid 1711) was changed to a glycine to avoid the proteolytic cleavage of the lysine tag. Furthermore, a cysteine to serine mutation was introduced by PCR at amino acid position 1454 to prevent the autolytic cleavage in the NS3 helicase domain. The variant DNA fragment was cloned in the pET21b bacterial expression vector (Novagen) and the NS3/4A complex was expressed in Escherichia coli strain BL21 (DE3) (Invitrogen) following the protocol described by P. Gallinari et al. (see Gallinari P, Brennan D, Nardi C, Brunetti M, Tomei L, Steinkuhler C, De Francesco R., J Virol. 72(8):6758-69 (1998)) with modifications. Briefly, the NS3/4A protease complex expression was induced with 0.5 mM Isopropyl β-D-1-thiogalactopyranoside (IPTG) for 22 hours (h) at 20° C. A typical fermentation (1 Liter (L)) yielded approximately 10 grams (g) of wet cell paste. The cells were resuspended in lysis buffer (10 mL/g) consisting of 25 mM N-(2-Hydroxyethyl)Piperazine-N′-(2-Ethane Sulfonic acid) (HEPES), pH 7.5, 20% glycerol, 500 mM Sodium Chloride (NaCl), 0.5% Triton X-100, 1 microgram/milliliter (“μg/mL”) lysozyme, 5 mM Magnesium Chloride (MgCl2), 1 μg/ml Dnasel, 5 mM β-Mercaptoethanol (βME), Protease inhibitor-Ethylenediamine Tetraacetic acid (EDTA) free (Roche), homogenized and incubated for 20 minutes (min) at 4° C. The homogenate was sonicated and clarified by ultra-centrifugation at 235000 g for 1 h at 4° C. Imidazole was added to the supernatant to a final concentration of 15 mM and the pH adjusted to 8.0. The crude protein extract was loaded on a Nickel-Nitrilotriacetic acid (Ni-NTA) column pre-equilibrated with buffer B (25 mM HEPES, pH 8.0, 20% glycerol, 500 mM NaCl, 0.5% Triton X-100, 15 mM imidazole, 5 mM βME). The sample was loaded at a flow rate of 1 mL/min. The column was washed with 15 column volumes of buffer C (same as buffer B except with 0.2% Triton X-100). The protein was eluted with 5 column volumes of buffer D (same as buffer C except with 200 mM Imidazole). […]

[2] = tested on: HCV replicon in HUH-7 cells; assay: HCV replicon FRET assay; assay type: cell-based, Hepatitis C virus (strain 1b); settings: Hepatitis C virus, Huh-7; HCV replicon, for compounds tested; read-out: EC50 Range
Source text: An HCV replicon whole cell system was established as described by Lohmann V, Komer F, Koch J, Herian U, Theilmann L, Bartenschlager R., Science 285(5424):110-3 (1999). This system enabled us to evaluate the effects of our HCV Protease compounds on HCV RNA replication. Briefly, using the HCV strain 1b sequence described in the Lohmann paper (Assession number: AJ238799), an HCV cDNA was synthesized by Operon Technologies, Inc. (Alameda, Calif.), and the full-length replicon was then assembled in plasmid pGem9zf(+) (Promega, Madison, Wis.) using standard molecular biology techniques. The replicon consists of (i) the HCV 5′ UTR fused to the first 12 amino acids of the capsid protein, (ii) the neomycin phosphotransferase gene (neo), (iii) the IRES from encephalomyocarditis virus (EMCV), and (iv) HCV NS3 to NS5B genes and the HCV 3′ UTR. Plasmid DNAs were linearized with Scal and RNA transcripts were synthesized in vitro using the T7 MegaScript transcription kit (Ambion, Austin, Tex.) according to manufacturer's directions. In vitro transcripts of the cDNA were transfected into the human hepatoma cell line, HUH-7. […] Resulting cell lines were characterized for positive and negative strand RNA production and protein production over time.
The HCV replicon FRET assay was developed to monitor the inhibitory effects of compounds described in the disclosure on HCV viral replication. HUH-7 cells, constitutively expressing the HCV replicon, were grown in Dulbecco's Modified Eagle Media (DMEM) (Gibco-BRL) containing 10% Fetal calf serum (FCS) (Sigma) and 1 mg/ml G418 (Gibco-BRL). Cells were seeded the night before (1.5×10^4 cells/well) in 96-well tissue-culture sterile plates. Compound and no compound controls were prepared in DMEM containing 4% FCS, 1:100 Penicillin/Streptomysin (Gibco-BRL), 1:100 L-glutamine and 5% DMSO in the dilution plate (0.5% DMSO final concentration in the assay). Compound/DMSO mixes were added to the cells and incubated for 4 days at 37° C. After 4 days, cells were first assessed for cytotoxicity using alamar Blue (Trek Diagnotstic Systems) for a CC50 reading. The toxicity of compound (CC50) was determined by adding 1/10th volume of alamar Blue to the media incubating the cells. After 4 hours, the fluorescence signal from each well was read, with an excitation wavelength at 530 nm and an emission wavelength of 580 nm, using the Cytofluor Series 4000 (Perspective Biosystems). Plates were then rinsed thoroughly with Phosphate-Buffered Saline (PBS) (3 times 150 μl). The cells were lysed with 25 μl of a lysis assay reagent containing an HCV protease substrate (5× cell Luciferase cell culture lysis reagent (Promega #E153A) diluted to 1× with distilled water, NaCl added to 150 mM final, the FRET peptide substrate (as described for the enzyme assay above) diluted to 10 μM final from a 2 mM stock in 100% DMSO. […]. The plate was then placed into the Cytofluor 4000 instrument which had been set to 340 nm excitation/490 nm emission, automatic mode for 21 cycles and the plate read in a kinetic mode. EC50 determinations were carried out as described for the IC50 determinations.

T1 sequence (P27958 1027-1657, change not shown, one chain of several): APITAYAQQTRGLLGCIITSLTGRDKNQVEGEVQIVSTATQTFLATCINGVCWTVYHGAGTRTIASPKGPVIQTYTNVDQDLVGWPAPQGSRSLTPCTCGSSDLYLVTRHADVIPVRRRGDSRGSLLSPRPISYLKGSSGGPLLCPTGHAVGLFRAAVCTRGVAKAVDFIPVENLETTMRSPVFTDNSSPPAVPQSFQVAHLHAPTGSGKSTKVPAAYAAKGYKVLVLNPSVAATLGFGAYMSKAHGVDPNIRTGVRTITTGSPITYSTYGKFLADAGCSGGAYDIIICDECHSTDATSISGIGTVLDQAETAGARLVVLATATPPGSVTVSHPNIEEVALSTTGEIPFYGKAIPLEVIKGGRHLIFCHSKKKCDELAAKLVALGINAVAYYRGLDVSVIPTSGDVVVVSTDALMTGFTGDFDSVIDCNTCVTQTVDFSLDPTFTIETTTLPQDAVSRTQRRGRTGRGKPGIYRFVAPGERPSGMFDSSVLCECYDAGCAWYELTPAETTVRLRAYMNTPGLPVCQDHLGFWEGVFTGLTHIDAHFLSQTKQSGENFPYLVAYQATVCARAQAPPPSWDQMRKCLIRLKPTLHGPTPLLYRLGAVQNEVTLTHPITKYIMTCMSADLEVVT

| Structure (SMILES) | IC50 [1] [nM] | EC50 [2] [nM] | melting point [°C] |
| --- | --- | --- | --- |
| CC(C)(C)OC(=O)N[C@H]1COCCC/C=C\[C@@H]2C[C@@]2(C(=O)NS(=O)(=O)C2CC2)NC(=O)[C@@H]2C[C@@H](OC(=O)Nc3ccc(Oc4ccccc4)cc3)CN2C1=O [Compound 41, 18-(4-phenoxyphenylaminocabonyloxy)-14-tert-butoxycarbonylamino-4-cyclopropylsulfonylaminocarbonyl-2,15-dioxo-3,16-diaza-12-oxatricyclo-[14.3.0.0^4,6]-nonadec-7-ene] | > 1000 | > 1000 | 163 to 165 |
| CC(C)(C)OC(=O)N[C@H]1CCCCC/C=C\[C@@H]2C[C@@]2(C(=O)NS(=O)(=O)C2CC2)NC(=O)[C@@H]2C[C@@H](OC(=O)c3ccccn3)CN2C1=O [Compound 28, 18-(picolinoyloxy)-14-tert-butoxycarbonylamino-4-cyclopropylsulfonylaminocarbonyl-2,15-dioxo-3,16-diazatricyclo-[14.3.0.0^4,6]-nonadec-7-ene] | < 100 | > 1000 | 164 to 166 |
| CC(C)(C)OC(=O)N[C@H]1CCCCC/C=C\[C@@H]2C[C@@]2(C(=O)NS(=O)(=O)C2CC2)NC(=O)[C@@H]2C[C@@H](OC(=O)c3cnccn3)CN2C1=O [Compound 27, 18-(pyrazinecarbonyloxy)-14-tert-butoxycarbonylamino-4-cyclopropylsulfonylaminocarbonyl-2,15-dioxo-3,16-diazatricyclo-[14.3.0.0^4,6]-nonadec-7-ene] | < 100 | > 1000 | 150 to 152 |
| CC(C)(C)OC(=O)N[C@H]1CCCCC/C=C\[C@@H]2C[C@@]2(C(=O)O)NC(=O)[C@@H]2C[C@@H](OC(=O)Nc3ccccc3-c3ccccc3)CN2C1=O [Compound 47] | > 1000 |  |  |
| CC(C)(C)OC(=O)N[C@H]1CN(C2CC2)CCC/C=C\[C@@H]2C[C@@]2(C(=O)NS(=O)(=O)C2CC2)NC(=O)[C@@H]2C[C@@H](OC(=O)c3ccc4nccnc4c3)CN2C1=O [Compound 49] | < 100 | < 100 |  |
| Cc1onc(-c2ccccc2)c1C(=O)O[C@@H]1C[C@H]2C(=O)N[C@]3(C(=O)NS(=O)(=O)C4CC4)C[C@H]3/C=C\CCCCC[C@H](NC(=O)OC(C)(C)C)C(=O)N2C1 | < 100 | < 100 |  |
| CC(C)(C)OC(=O)N[C@H]1COCCC/C=C\[C@@H]2C[C@@]2(C(=O)NS(=O)(=O)C2CC2)NC(=O)[C@@H]2C[C@@H](OC(=O)N3Cc4cccc(F)c4C3)CN2C1=O [Compound 46, 18-(2-[4-fluoroisoindoline]carbonyloxy)-14-tert-butoxycarbonylamino-4-cyclopropylsulfonylaminocarbonyl-2,15-dioxo-3,16-diaza-12-oxatricyclo-[14.3.0.0^4,6]-nonadec-7-ene] | < 100 | < 100 |  |
| CC(C)(C)OC(=O)N[C@H]1CCCCC/C=C\[C@@H]2C[C@@]2(C(=O)NS(=O)(=O)C2CC2)NC(=O)[C@@H]2C[C@@H](OC(=O)Nc3ccccc3-c3ccccc3)CN2C1=O [Compound 48] | < 100 | < 100 |  |
| CC(C)(C)OC(=O)N[C@H]1CCCCC/C=C\[C@@H]2C[C@@]2(C(=O)NS(=O)(=O)C2CC2)NC(=O)[C@@H]2C[C@@H](OC(=O)c3cccc(F)c3)CN2C1=O | < 100 | < 100 |  |
| CN(C)S(=O)(=O)NC(=O)[C@@]12C[C@H]1/C=C\CCCCC[C@H](NC(=O)OC(C)(C)C)C(=O)N1C[C@H](OC(=O)c3ccc4c(c3)OCCO4)C[C@H]1C(=O)N2 | < 100 | < 100 |  |
| CC(C)(C)OC(=O)N[C@H]1CN(C2CC2)CCC/C=C\[C@@H]2C[C@@]2(C(=O)NS(=O)(=O)C2CC2)NC(=O)[C@@H]2C[C@@H](OC(=O)N3Cc4cccc(F)c4C3)CN2C1=O [Compound 50] | < 100 | < 100 |  |
| CC(C)(C)OC(=O)N[C@H]1COCCC/C=C\[C@@H]2C[C@@]2(C(=O)NS(=O)(=O)C2CC2)NC(=O)[C@@H]2C[C@@H](OC(=O)Nc3ccc(-c4ccccc4)cc3)CN2C1=O [Compound 39, 18-(4-biphenylaminocarbonyloxy)-14-tert-butoxycarbonylamino-4-cyclopropylsulfonylaminocarbonyl-2,15-dioxo-3,16-diaza-12-oxatricyclo-[14.3.0.0^4,6]-nonadec-7-ene] | > 1000 |  | 170 to 173 |
| CC(C)(C)OC(=O)N[C@H]1CCCCC/C=C\[C@@H]2C[C@@]2(C(=O)NS(=O)(=O)C2CC2)NC(=O)[C@@H]2C[C@@H](OC(=O)c3cc4ccccc4o3)CN2C1=O | < 100 | < 100 |  |
